Assays:
[1] = target: human S1P1 (EDG-1) (Homo sapiens, UniProt P21453); assay: S1P receptor agonist activity by monitoring intracellular calcium concentration (S1P1); assay type: cell-based; details: CHO cells overexpressing human S1P1, intracellular calcium, S1P = 100%
Protocol: (§1) Chinese hamster ovary (CHO) cells in which human S1P1 (EDG-1) or human S1P5 (EDG-8) genes were overexpressed were cultured in Ham's F-12 medium containing 10% FBS (fetal bovine serum), penicillin/streptomycin, and geneticin (0.25 mg/mL). The medium was changed one day before the calcium assay was performed and on the day of the assay. Four hours after medium exchange, medium was removed and washed once with phosphate buffered saline. 0.05% Trypsin EDTA was added thereto to exfoliate the cells, and then a medium was added to recover the cells. The collected cell suspension was centrifuged to remove the supernatant, and suspended in phosphate buffered saline to count the number of cells. The cells were suspended in a Hanks solution containing Calcium 6 Assay Reagent (manufactured by Molecular Devices), 20 mM HEPES and 2.5 mM Probenecid so as to be 1.1×10^6 cells/mL, and incubated at 37° C. for about 1 hour. Thereafter, the supernatant was removed by centrifugation, and the cells were suspended in a Hanks solution containing 20 mM HEPES, 2.5 mM Probenecid and 0.1% BSA so as to be 2.2×10^6 cells/mL. The suspension was seeded in a 96 well plate at 80 μL/well. A plate was set in a fluorescent drug screening system (FDSS6000), Compound I or a comparative compound, and S1P were sequentially added, and an increase in intracellular calcium concentration before and after addition was measured at an excitation wavelength of 480 nm and a fluorescence wavelength of 540 nm. The increase in intracellular calcium concentration was evaluated by signal intensity at a fluorescence wavelength, and the agonist activity of each compound was calculated with the signal intensity when S1P was added instead of the compound as 100% activity.

[2] = target: human S1P5 (EDG-8) (Homo sapiens, UniProt Q9H228); assay: S1P receptor agonist activity by monitoring intracellular calcium concentration (S1P5); assay type: cell-based; details: for S1P5 receptor agonist activity: CHO cells overexpressing human S1P5, intracellular calcium, S1P = 100%; for balance of S1P5 receptor agonist activity with respect to S1P1 receptor (selectivity): comparison of agonist activities on S1P1 and S1P5
Chain of human S1P5 (EDG-8) (Q9H228 whole entry): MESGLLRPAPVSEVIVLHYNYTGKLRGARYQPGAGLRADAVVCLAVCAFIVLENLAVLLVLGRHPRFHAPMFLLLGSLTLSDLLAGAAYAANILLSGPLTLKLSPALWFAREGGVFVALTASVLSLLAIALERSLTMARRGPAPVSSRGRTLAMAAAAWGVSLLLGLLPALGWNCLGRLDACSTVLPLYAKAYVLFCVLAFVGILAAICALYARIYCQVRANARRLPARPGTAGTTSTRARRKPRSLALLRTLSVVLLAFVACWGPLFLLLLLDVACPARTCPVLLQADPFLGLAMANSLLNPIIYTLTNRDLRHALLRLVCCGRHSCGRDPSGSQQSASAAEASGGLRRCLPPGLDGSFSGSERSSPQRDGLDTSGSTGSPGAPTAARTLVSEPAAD
Protocol: as §1

[3] = Measurement of clearance in rats; assay type: in vivo, rat; details: male SD rats, fasted, tail-intravenous administration, plasma
Protocol: A solution of Compound I was tail-intravenously administered to male SD rats under fasted conditions. After administration, rats were retained by a manual method at regular time intervals, and blood was collected from the jugular vein with sodium heparin.
The blood was centrifuged at 10,000 g, 3 min, 4° C. to obtain plasma. Concentration of Compound I in the plasma was measured by LC/MS/MS. Clearance was calculated from the plasma concentration transition using pharmacokinetic analysis software Phoenix WinNonlin (Certara USA, Inc.).

[4] = system: mouse experimental autoimmune encephalomyelitis model; assay: Effectiveness in mouse experimental autoimmune encephalomyelitis model; assay type: in vivo; details: female C57BL/J mice, MOG35-55 immunization, oral once a day for 30 days
Protocol: Female C57BL/J mice (Charles River Laboratories Japan, Inc., age at start of experiment: 7 or 8 weeks of age) were used. Myelin Oligodendrocyte Glycoprotein [sequence 35-55 […] (AnaSpec, Inc., hereinafter MOG35-55)] was dissolved in physiological saline (Otsuka Pharmaceutical Factory, Inc.) to prepare a 2 mg/mL solution. The 2 mg/mL solution of MOG35-55 and an equal amount of FCA H37Ra (Difco Laboratories) were mixed to prepare an emulsion, and the emulsion was used as an inducing agent. Immunization was performed by subcutaneously administering 0.2 mL of the inducing agent into the mouse flank using a glass syringe equipped with a 26G injection needle. […]
After dividing into groups, administration of a test substance (Compound I), a positive control compound (FTY720; fingolimod), or a vehicle (water for injection) was started on the same day, and each test substance was repetitively orally administered once a day for 30 days from the day before the immunization to day 28 of immunization. The amount of the solution to be administered was calculated based on the individual body weight on the day of administration. […]

[5] = Chemical stability test (residual rate by HPLC after storage); assay type: physicochemical; details: vs sample stored at −20° C.
Protocol: Stability of the salts and/or crystal forms of the present invention was studied under the storage conditions of Condition 1 or Condition 2. After storage, the residual rate (%) of the stored sample under each condition was calculated by HPLC based on the area percentage of the sample stored at −20° C.
• Condition 1 60° C.: 1 month: pulverized • Condition 2 80° C.: 1 week: unpulverized
Comparison object of each sample was stored at −20° C.

[6] = Condition 1: 60° C.: 1 month: pulverized
[7] = Condition 2: 80° C.: 1 week: unpulverized

Chain of human S1P1 (EDG-1) (P21453 whole entry): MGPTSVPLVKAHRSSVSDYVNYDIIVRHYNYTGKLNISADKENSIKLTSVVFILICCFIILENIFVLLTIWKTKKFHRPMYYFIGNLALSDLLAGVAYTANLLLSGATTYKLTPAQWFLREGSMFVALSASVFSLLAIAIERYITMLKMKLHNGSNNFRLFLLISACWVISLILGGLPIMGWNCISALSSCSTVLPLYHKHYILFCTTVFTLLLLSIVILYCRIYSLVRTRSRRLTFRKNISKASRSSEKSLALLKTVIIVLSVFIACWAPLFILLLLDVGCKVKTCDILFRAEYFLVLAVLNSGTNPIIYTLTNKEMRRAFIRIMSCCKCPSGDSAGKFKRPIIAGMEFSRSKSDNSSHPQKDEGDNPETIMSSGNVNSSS

SMILES	Residual rate (%) [5, 6] [%]	Residual rate (%) [5, 7] [%]	further results
CCCCCCCCOc1ccc2c(c1)CCC(CN1CC(C(=O)O)C1)=C2C.Cl [Comparative Compound A, 1-{[1-methyl-6-(octyloxy)-3,4-dihydro-2-naphthalenyl]methyl}-3-azetidine carboxylic acid hydrochloride]	–	–	S1P1 receptor agonist activity [1]: had both S1P1 and S1P5 receptor agonist activities; S1P5 receptor agonist activity [2]: had both S1P1 and S1P5 receptor agonist activities; balance of S1P5 receptor agonist activity with respect to S1P1 receptor (selectivity) [2]: S1P1 receptor agonist activity being stronger than S1P5 receptor agonist activity
CCCc1ccc(COc2ccc3c(c2)CCC(CN2CC(C(=O)O)C2)=C3C)c(OC)c1 [Comparative Compound B, 1-({6-[(2-methoxy-4-propylbenzyl)oxy]-1-methyl-3,4-dihydro-2-naphthalenyl}methyl)-3-azetidine carboxylic acid]	–	–	S1P1 receptor agonist activity [1]: had both S1P1 and S1P5 receptor agonist activities; S1P5 receptor agonist activity [2]: had both S1P1 and S1P5 receptor agonist activities; balance of S1P5 receptor agonist activity with respect to S1P1 receptor (selectivity) [2]: S1P1 receptor agonist activity being stronger than S1P5 receptor agonist activity
COc1ccc2c(c1)C[C@H](C)C(CN1CC(F)(C(=O)O)C1)=C2 [Comparative Example, (S)-3-Fluoro-1-[(6-methoxy-3-methyl-3,4-dihydronaphthalen-2-yl)methyl]azetidine-3-carboxylic acid]	–	–	S1P1 receptor agonist activity [1]: did not have S1P1 and S1P5 receptor agonist activities; S1P5 receptor agonist activity [2]: did not have S1P1 and S1P5 receptor agonist activities
C[C@H]1Cc2cc(OCCCC(F)(F)F)ccc2C=C1CN1CC(C(=O)O)C1 [Compound I, 1-[[(3S)-3-Methyl-6-(4,4,4-trifluorobutoxy)-3,4-dihydronaphthalen-2-yl]methyl]azetidine-3-carboxylic acid]	–	–	balance of S1P5 receptor agonist activity with respect to S1P1 receptor (selectivity) [2]: selective agonist activity on the S1P5 receptor; Clearance [3]: low clearance; effectiveness in EAE model (neurological symptom score) [4]: shows effectiveness
C[C@H]1Cc2cc(OCCCC(F)(F)F)ccc2C=C1CN1CC(C(=O)O)C1 [Example 7, 1-[[(3S)-3-methyl-6-(4,4,4-trifluorobutoxy)-3,4-dihydronaphthalen-2-yl]methyl]azetidine-3-carboxylic acid]	99.1	–	–
C[C@H]1Cc2cc(OCCCC(F)(F)F)ccc2C=C1CN1CC(C(=O)O)C1.O [Example 8, hydrate of 1-[[(3S)-3-methyl-6-(4,4,4-trifluorobutoxy)-3,4-dihydronaphthalen-2-yl]methyl]azetidine-3-carboxylic acid]	97.8	–	–
C[C@H]1Cc2cc(OCCCC(F)(F)F)ccc2C=C1CN1CC(C(=O)O)C1.O=C(O)c1ccccc1 [Example 9, monobenzoate of 1-[[(3S)-3-methyl-6-(4,4,4-trifluorobutoxy)-3,4-dihydronaphthalen-2-yl]methyl]azetidine-3-carboxylic acid]	97.9	–	–
C[C@H]1Cc2cc(OCCCC(F)(F)F)ccc2C=C1CN1CC(C(=O)O)C1.O=C(O)c1ccc(O)cc1 [Example 10, mono(4-hydroxybenzoate) of 1-[[(3S)-3-methyl-6-(4,4,4-trifluorobutoxy)-3,4-dihydronaphthalen-2-yl]methyl]azetidine-3-carboxylic acid]	99.4	99.6	–
C[C@H]1Cc2cc(OCCCC(F)(F)F)ccc2C=C1CN1CC(C(=O)O)C1.O.O=C(O)c1ccc(O)cc1 [Example 12, hydrate of mono(4-hydroxybenzoate) of 1-[[(3S)-3-methyl-6-(4,4,4-trifluorobutoxy)-3,4-dihydronaphthalen-2-yl]methyl]azetidine-3-carboxylic acid]	95.3	–	–
C[C@H]1Cc2cc(OCCCC(F)(F)F)ccc2C=C1CN1CC(C(=O)O)C1.C[C@H]1Cc2cc(OCCCC(F)(F)F)ccc2C=C1CN1CC(C(=O)O)C1.O=S(=O)(O)O [Example 13, hemisulfate of 1-[[(3S)-3-methyl-6-(4,4,4-trifluorobutoxy)-3,4-dihydronaphthalen-2-yl]methyl]azetidine-3-carboxylic acid]	97.1	–	–
C[C@H]1Cc2cc(OCCCC(F)(F)F)ccc2C=C1CN1CC(C(=O)O)C1.N[C@@H](Cc1c[nH]c2ccccc12)C(=O)O [Example 14, mono-tryptophan salt of 1-[[(3S)-3-methyl-6-(4,4,4-trifluorobutoxy)-3,4-dihydronaphthalen-2-yl]methyl]azetidine-3-carboxylic acid]	99.1	99.6	–
C[C@H]1Cc2cc(OCCCC(F)(F)F)ccc2C=C1CN1CC(C(=O)O)C1.C[C@H]1Cc2cc(OCCCC(F)(F)F)ccc2C=C1CN1CC(C(=O)O)C1.O=C(O)CCC(=O)O [Example 15, hemisuccinate of 1-[[(3S)-3-methyl-6-(4,4,4-trifluorobutoxy)-3,4-dihydronaphthalen-2-yl]methyl]azetidine-3-carboxylic acid]	–	99.1	–
C[C@H]1Cc2cc(OCCCC(F)(F)F)ccc2C=C1CN1CC(C(=O)O)C1.C[C@H]1Cc2cc(OCCCC(F)(F)F)ccc2C=C1CN1CC(C(=O)O)C1.O=C(O)CCCCC(=O)O [Example 16, hemiadipate of 1-[[(3S)-3-methyl-6-(4,4,4-trifluorobutoxy)-3,4-dihydronaphthalen-2-yl]methyl]azetidine-3-carboxylic acid]	–	95.8	–
